# Test system: trypsin
# Assay: Trypsin enzymatic assay (L-Arg-AMC substrate)
# Format: biochemical
# Protocol: Briefly, the peptide NLP conjugates were incubated at the indicated concentration with trypsin (2 nM) for 30 min at room temperature. The substrate L-Arginine-7-amido-4-methylcoumarin (L-Arg-AMC) (75 μM) was added to the mixture and the proteolytic activity was measured immediately. Samples were run in triplicate and repeated twice. The data were analyzed using KaleidaGraph software.
smiles,measurement,value
CCCCCCCCCCCCCCCC(=O)NCCCC[C@H](N)C(=O)NCC(=O)N[C@@H](CO)C(=O)NCC(=O)N[C@@H](CO)C(=O)NCC(=O)N[C@H]1CSSC[C@@H]2NC(=O)CNC(=O)[C@H](C)NC(=O)[C@H](CC(C)C)NC(=O)[C@@H]3CSSC[C@@H](C(=O)NCC(=O)O)NC(=O)[C@H](Cc4ccccc4)NC(=O)CNC(=O)[C@H](CC(N)=O)NC(=O)[C@@H]4CCCN4C(=O)CNC(=O)[C@H](CSSC[C@H](NC(=O)[C@H](CCCNC(=N)N)NC(=O)[C@H](CCSC)NC(=O)[C@H](CC(C)C)NC(=O)[C@H]([C@@H](C)CC)NC(=O)[C@H](CCCNC(=N)N)NC(=O)[C@@H]4CCCN4C1=O)C(=O)N[C@@H](CCCCN)C(=O)N[C@@H](CCC(N)=O)C(=O)N[C@@H](CC(=O)O)C(=O)N[C@@H](CO)C(=O)N[C@@H](CC(=O)O)C(=O)N3)NC(=O)[C@H](C(C)C)NC2=O [CKP-C16],trypsin inhibitory activity,inhibitory potency
